# Results reported in US20220324860A1, “SUBSTITUTED PYRAZOLO[4,3-b]PYRIDINES AND THEIR USE AS GLUN2B RECEPTOR MODULATORS” (JANSSEN PHARMACEUTICA NV, priority 2019, published 2022).
# Assay: Liver microsomal stability (extraction ratio)
# Format: in vitro ADME
# Conditions: test compound 1 μM; 0.5 mg/mL liver microsomes, NADPH 1 mM, 37° C.; predicted hepatic clearance (well-stirred model) divided by species blood flow; species not given
# Description: Protocol for Liver Microsomal Stability (Extraction Ratio)
# Liver Microsomal Stability. Microsomal stability studies (Chrovian et al, “1H-Pyrrolo[3,2-b]pyridine GluN2B-Selective Negative Allosteric Modulators”. ACS Med Chem Lett. 2019 Jan. 10; 10(3):261-266) were conducted on a Biomek® FX Robotic Liquid Handling Workstation (Beckman Coulter, Brea, Calif.), which consists of a 96-channel pipette head, a 12-position workstation deck, and a plate incubator. Test compounds (1 μM) were spiked in a reaction mix consisting of 100 mM potassium phosphate buffer (pH 7.4), 3 mM MgCl2, and 0.5 mg/mL liver microsomes from mouse, rat, and human (BD Gentest). The reaction was brought to 37° C. and initiated by adding NADPH to a final concentration of 1 mM. After mixing on the plate deck, 50 μL aliquots were excised from the reaction plate at 0, 5, 10, 20, 40, and 60 min and quenched with four volumes of acetonitrile spiked with […] of the internal standard phenytoin. Quenched plates were centrifuged at 5700 rpm for 10 min at 4° C., and supernatant was diluted 1:3 in water before LC/MS/MS analysis. The compound half-lives were derived from plots of the ln of percent remaining compound over time to determine the intrinsic clearance. The predicted hepatic clearance was derived from the intrinsic clearance value using equations from the well-stirred model (Current Drug Metabolism, 2008, 9, 940-951), where no correction was made plasma protein binding and the blood to plasma concentration ratio was assumed to be one. The extraction ratio (ER) was calculated by dividing the predicted hepatic clearance by species blood flow (Q), where Q is 90, 55, and 21.7 mL/min/kg for mouse, rat and human, respectively.
row,SMILES,Extraction Ratio @ 1 μM
1,"CC[S+]([O-])Cn1ncc2ncc(-c3cccc(C(F)(F)F)c3F)cc21 (racemic) [Example 86, (RS)-1-(Ethylsulfinylmethyl)-6-[2-fluoro-3-(trifluoromethyl)phenyl]pyrazolo[4,3-b]pyridine]",0.50
2,"CCN1CC(Cn2ncc3ncc(-c4ccc(F)c(C(F)F)c4)cc32)OC1=O (racemic) [Example 131, (RS)-5-[[6-[3-(Difluoromethyl)-4-fluoro-phenyl]pyrazolo[4,3-b]pyridin-1-yl]methyl]-3-ethyl-oxazolidin-2-one]",0.58
3,"CC[S+]([O-])Cn1ncc2ncc(-c3ccc(F)c(C(F)F)c3)cc21 (single isomer, unassigned) [Example 85, (R*)-6-(3-(Difluoromethyl)-4-fluorophenyl)-1-((ethylsulfinyl)methyl)-1H-pyrazolo[4,3-b]pyridine]",0.46
4,"CCC(=O)Cn1ncc2ncc(-c3ccc(F)c(C(F)F)c3)cc21 [Example 4, 1-[6-[3-(Difluoromethyl)-4-fluoro-phenyl]pyrazolo[4,3-b]pyridin-1-yl]butan-2-one]",0.66
5,"CC(=O)Cn1ncc2ncc(-c3ccc(F)c(OC(F)F)c3)cc21 [Example 25, 1-[6-[3-(Difluoromethoxy)-4-fluoro-phenyl]pyrazolo[4,3-b]pyridin-1-yl]propan-2-one]",0.64
6,"CCC(=O)Cn1nc(C)c2ncc(-c3ccc(F)c(C(F)F)c3)cc21 [Example 36, 1-(6-(3-(Difluoromethyl)-4-fluorophenyl)-3-methyl-1H-pyrazolo[4,3-b]pyridin-1-yl)butan-2-one]",0.72
7,"CCC(=O)Cn1ncc2ncc(-c3cccc(C(F)(F)F)c3F)cc21 [Example 38, 1-[6-[2-Fluoro-3-(trifluoromethyl)phenyl]pyrazolo[4,3-b]pyridin-1-yl]butan-2-one]",0.61
8,"CCC(=O)Cn1ncc2ncc(-c3cc(F)c(F)c(F)c3)cc21 [Example 42, 1-[6-(3,4,5-Trifluorophenyl)pyrazolo[4,3-b]pyridin-1-yl]butan-2-one]",0.63
9,"O=C(Cn1ncc2ncc(-c3cccc(C(F)F)c3)cc21)C1CC1 [Example 61, 1-Cyclopropyl-2-[6-[3-(difluoromethyl)phenyl]pyrazolo[4,3-b]pyridin-1-yl]ethanone]",0.43
10,"Cc1c(F)ccc(-c2cnc3cnn(CC(=O)C4CC4)c3c2)c1C [Example 78, 1-Cyclopropyl-2-[6-(4-fluoro-2,3-dimethyl-phenyl)pyrazolo[4,3-b]pyridin-1-yl]ethanone]",0.52
